Results: US10335388B2, “Combination therapy of a HIF-2-alpha inhibitor and an immunotherapeutic agent and uses thereof” (PELOTON THERAPEUTICS, INC., priority 2015, dated 2019)
pEC50, pIC50: −log10 of the molar value. Like-named read-outs stand apart in the source and are kept apart here.

Tests used:
[1] = tested on: 786-O-Hif-Luc cells; experiment: Luciferase assay (HIF responsive element reporter); conditions: 24 h
Method: A pool of infected cells were then selected against 2 μg/mL of puromycin (P8833, Sigma) for 10 days followed by limited dilution to select single clones.
Each concentration was tested in triplicate. After about 24 hours, luciferase activity was determined using ONE-Glo Luciferase Assay Reagent (E6110, Promega) following the manufacturer's recommended procedure. EC50 were calculated using Dotmatics software.

[2] = molecular target: T1, HIF-2α HIS TAG-PASB Domain (Homo sapiens, UniProt Q99814); experiment: HIF-2α Scintillation Proximity Assay (SPA); assay type: binding; conditions: displacement of tritiated probe Compound 183
T1 construct: 100 nM HIF-2α HIS TAG-PASB Domain
Method: The total assay volume was about 100 μL in the following configuration: 2 μL compound in 100% DMSO, 88 μL buffer with protein and probe and 10 μL of SPA beads. […] The percent inhibition was determined and IC50 values were calculated using the Dotmatics system based on the following equation: % inhibition=[(high control−sample)/(high control−low control)]×100.

[3] = tested on: 786-O cells; experiment: VEGF ELISA assay; assay type: cell-based; conditions: Homo sapiens, 786-0
Method: Each concentration was plated in duplicate. About 20 hours later, medium was removed by suction and each well was supplied with 180 μL of growth medium. About 20 µl freshly-made 10× compound stocks were added to each well. […] The EC50 was calculated by GraphPad Prism using the dose-response-inhibition (four parameter) equation. The cell-seeded plate was then subjected to CellTiter-Glo luminescence cell viability assay (Promega) by adding 50 μL of Celltiter Glo reagent into each well and shaking the plate for 8 minutes at 550 rpm (Thermomixer R, Eppendorf) then the luminescence signal immediately read in a plate reader (3 second delay, 0.5 second/well integration time, Synergy 2 multi Detection Microplate reader).

[4] = read-out: Mean Luciferase EC50 (nM)
[5] = read-out: Mean Luciferase EC50 (nM), 786-O-Hif-Luc cells, about 24 hours

T1 sequence (Q99814 240-350 limits assumed): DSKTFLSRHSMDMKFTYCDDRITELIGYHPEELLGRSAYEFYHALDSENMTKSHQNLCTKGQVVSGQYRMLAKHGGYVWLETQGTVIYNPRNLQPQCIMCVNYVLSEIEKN

Compound	EC50 [1, 4] [nM]	pIC50 [2]	further results
CS(=O)(=O)c1ccc(Oc2cc(F)cc(C#N)c2)c2c1[C@@H](O)C(F)(F)C2 [Compound 226]	> 1000		
N#Cc1cc(F)cc(Oc2ccc(S(=O)(=O)C(F)(F)F)c3c2CC(F)(F)[C@H]3N)c1 [Compound 290]	50 to 249		
CC(=NO)c1c(S(=O)(=O)C(F)(F)F)ccc(Oc2cc(F)cc(Cl)c2)c1Br [Compound 106]		6.00 to 6.60	
O=S(=O)(c1ccc(Oc2cc(F)cc(Cl)c2)c(Cl)c1CO)C(F)F [Compound 41]	250 to 1000		pEC50 [3]: 6.00 to 6.60
N#Cc1cc(Cl)cc(Oc2ccc(S(=O)(=O)CF)c3c2CC(F)(F)[C@H]3O)c1 [Compound 167]	< 50		
CNS(=O)(=O)c1ccc(Oc2cc(F)cc(C#N)c2)c2c1[C@H](O)C(F)(F)C2 [Compound 254]	50 to 249		
N#Cc1c(Oc2cc(F)cc(Cl)c2)ccc(S(=O)(=O)C(F)(F)F)c1F [Compound 153]		6.60 to 7.30	
N#Cc1ccc(Oc2cc(F)cc(F)c2)c2c1[C@H](O)C(F)(F)C2 [Compound 67]			pEC50 [3]: 6.60 to 7.30
N#Cc1cc(F)cc(Oc2ccc(S(=O)(=O)C(F)F)c3c2CC[C@H]3O)c1 [Compound 155]	50 to 249		pEC50 [3]: 6.60 to 7.30
CCCOc1ccc(C2CC2)c2c1CC(F)(F)C2O (stereo not shown) [Compound 685]		< 6.00	
O=S(=O)(c1ccc(O[C@@H]2CCCc3cn[nH]c32)c2c1[C@H](O)C(F)(F)C2)C(F)(F)F [Compound 729]		< 6.00	
N#Cc1cncc(Oc2ccc(S(=O)(=O)C(F)(F)F)c3c2CC(F)(F)[C@H]3O)c1 [Compound 235]	< 50		
N#Cc1cc(F)cc(Oc2ccc(S(N)(=O)=O)c3c2[C@H](F)C(F)(F)[C@H]3O)c1 [Compound 339]	250 to 1000		
O=S(=O)(c1ccc(Oc2cc(F)cc(Cl)c2)c(C(F)F)c1)C(F)(F)F [Compound 124]	250 to 1000		pEC50 [3]: 6.00 to 6.60
N#CC1CCc2c(OCC(F)F)ccc(C(F)(F)F)c21 (stereo not shown) [Compound 691]		< 6.00	
N#Cc1cc(F)cc(Oc2ccc(S(=O)(=O)C(F)(F)F)c3c2CC[C@H]3O)c1 [Compound 57]	50 to 249		
CS(=O)(=O)c1ccc(OC2CCOCC2)c2c1[C@H](O)C(F)(F)C2 [Compound 775]		6.00 to 6.60	EC50 [1, 5]: 250 to 1000 nM
CS(=O)(=O)c1ccc(Oc2cc(F)cc(C#N)c2)c2c1[C@H](O)[C@H](F)[C@@H]2F [Compound 289, 3-[(1S,2S,3R)-2,3-difluoro-1-hydroxy-7-methylsulfonyl-indan-4-yl]oxy-5-fluoro-benzonitrile]	< 50		
CS(=N)(=O)c1ccc(Oc2cc(F)cc(F)c2)c2c1[C@H](O)C(F)(F)C2 (stereo partly shown) [Compound 192]		6.60 to 7.30	EC50 [1, 5]: 250 to 1000 nM

Compound	EC50 [1, 4] [nM]	pIC50 [2]	further results
O=S(=O)(c1ccc(OC[C@@H]2CC2(F)F)c2c1[C@H](O)C(F)(F)C2)C(F)(F)F [Compound 728]		> 7.30	EC50 [1, 5]: < 50 nM
O[C@H]1c2c(C(F)(F)F)ccc(OC(F)F)c2CC1F (stereo partly shown) [Compound 671]		< 6.00	
O=S(=O)(c1ccc(OC2CCNCC2)c2c1C(O)C(F)(F)C2)C(F)(F)F (stereo not shown) [Compound 606]		< 6.00	
O=S(=O)(CF)c1ccc(OC2CC(F)C2)c2c1[C@H](O)C(F)(F)[C@@H]2F (stereo partly shown) [Compound 742]			pEC50 [3]: > 7.30; EC50 [1, 5]: < 50 nM
N#Cc1cc(F)cc(Oc2ccc3c(c2C(F)F)[C@@H](N)C(F)(F)S3(=O)=O)c1 [Compound 387]		6.60 to 7.30	
CCCOc1ccc(S(=O)(=O)C(F)F)c2c1CC(F)(F)[C@H]2O [Compound 676]		6.60 to 7.30	EC50 [1, 5]: 50 to 249 nM
N#Cc1cc(F)cc(Oc2ccc(S(=O)(=O)C(F)F)c3c2CCC3F)c1 (stereo not shown) [Compound 202]		6.00 to 6.60	EC50 [1, 5]: > 1000 nM
CS(=O)(=O)c1ccc(Oc2cc(Cl)cc(C#N)c2)c2c1[C@H](O)C(F)(F)C2 [Compound 234]	< 50		pEC50 [3]: 6.60 to 7.30
O=S(=O)(CF)c1ccc(O[C@H]2C[C@H](F)C2)c2c1[C@H](O)C(F)(F)[C@@H]2F [Compound 742]		> 7.30	
N#Cc1cc(F)cc(Oc2ccc(S(N)(=O)=O)c3c2[C@@H](F)C(F)(F)[C@H]3O)c1 [Compound 338]	< 50		
CNS(=O)(=O)c1ccc(Oc2cc(F)cc(F)c2)c2c1[C@H](O)C(F)(F)C2 [Compound 251]	50 to 249		
CS(=O)(=O)c1ccc(OC[C@H]2CC2(F)F)c2c1[C@H](O)C(F)(F)[C@@H]2F [Compound 769]		6.60 to 7.30	EC50 [1, 5]: 250 to 1000 nM
N#Cc1cccc(Oc2ccc(S(=O)(=O)C(F)F)c3c2CC[C@H]3O)c1 [Compound 156]	250 to 1000		
CCS(=O)(=O)c1ccc(Oc2cc(F)cc(C#N)c2)c2c1[C@H](O)C(F)(F)C2 [Compound 206]	50 to 249		
CS(=O)(=O)c1ccc(Oc2cc(F)cc(C#N)c2)c2c1C(O)C(F)(F)C2 (stereo not shown) [Compound 223]	50 to 249		
O=S(=O)(c1ccc(OC2CCCNC2)c2c1C(O)C(F)(F)C2)C(F)(F)F (stereo not shown) [Compound 797]		< 6.00	
O[C@H]1c2c(C(F)(F)F)ccc(OCC(F)F)c2C[C@H]1F [Compound 696]		6.60 to 7.30	EC50 [1, 5]: 50 to 249 nM
O=S(=O)(c1ccc(Oc2cc(F)cc(Cl)c2)c2c1[C@H](O)CC2)C(F)F [Compound 1]			pEC50 [3]: 6.00 to 6.60
CS(=O)(=O)c1ccc(Oc2cc(F)cc(C#N)c2)c2c1[C@H](N)C(F)(F)C2 [Compound 165]	50 to 249		

Compound	EC50 [1, 4] [nM]	pIC50 [2]	further results
NS(=O)(=O)c1ccc(Oc2cc(F)cc(F)c2)c2c1[C@H](O)C(F)(F)C2 [Compound 256]	< 50		
CS(=O)(=O)c1ccc(OC2CCOCC2)c2c1[C@H](O)C(F)(F)[C@@H]2F [Compound 796]		> 7.30	EC50 [1, 5]: 250 to 1000 nM
[2H][C@]1(O)c2c(S(C)(=O)=O)ccc(Oc3cc(F)cc(C#N)c3)c2CC1(F)F [Compound 247]	< 50		
N#Cc1cc(F)cc(Oc2ccc(S(N)(=O)=O)c3c2CC(F)(F)[C@H]3O)c1 [Compound 252]	50 to 249		
N#C[C@H]1C[C@H](Oc2ccc(S(=O)(=O)C(F)(F)F)c3c2CC(F)(F)C3O)C1 (stereo partly shown) [Compound 786]		> 7.30	EC50 [1, 5]: < 50 nM
[2H]C([2H])([2H])S(=O)(=O)c1ccc(Oc2cc(F)cc(C#N)c2)c2c1[C@]([2H])(O)C(F)(F)C2 [Compound 229]	< 50		
CC(C)(C)OC(=O)N[C@H]1C[C@@H](Oc2ccc(S(=O)(=O)C(F)(F)F)c3c2CC(F)(F)[C@H]3O)C1 [Compound 722]		< 6.00	EC50 [1, 5]: > 1000 nM
C[C@H]1C[C@@H](O)c2c(S(=O)(=O)C(F)F)ccc(Oc3cc(F)cc(Cl)c3)c21 [Compound 7a]	250 to 1000		
CS(=O)(=O)c1ccc(Oc2cc(F)cc(C#N)c2)c2c1[C@H](O)[C@H](F)C2 [Compound 231]	< 50		
O=S(=O)(c1ccc(OC2CC(O)C2)c2c1[C@H](O)C(F)(F)C2)C(F)(F)F (stereo partly shown) [Compound 644]		6.00 to 6.60	EC50 [1, 5]: 250 to 1000 nM
O=S(=O)(c1ccc(Oc2cc(F)cc(Cl)c2)c(Br)c1C=NO)C(F)(F)F [Compound 107]		6.60 to 7.30	EC50 [1, 5]: 250 to 1000 nM
CS(=O)(=O)c1ccc(Oc2cc(F)cc(C#N)c2)c2c1C(O)C(F)C2 (stereo not shown) [Compound 232]	< 50		
O=S(=O)(c1ccc(OCC(F)F)c2c1[C@H](O)C(F)(F)C2)C(F)F [Compound 677]		> 7.30	EC50 [1, 5]: 50 to 249 nM
O=S(=O)(c1ccc(Oc2cc(F)cc(Cl)c2)c2c1C(O)CC2)C(F)F (stereo not shown) [Compound 17]			pEC50 [3]: 6.60 to 7.30
CS(=O)(=O)c1ccc(Oc2cc(F)cc(F)c2)c2c1C(O)C(F)(F)C2 (stereo not shown) [Compound 159]		> 7.30	pEC50 [3]: > 7.30; EC50 [1, 5]: < 50 nM
O=S(=O)(c1ccc(-c2cccc(O)c2)c2c1[C@H](O)C(F)(F)C2)C(F)(F)F [Compound 564]		< 6.00	
CS(=O)(=O)c1ccc(Oc2cc(F)cc(C#N)c2)c2c1[C@H](O)[C@@H](F)C2 [Compound 271]	250 to 1000		
N#Cc1cc(F)cc(Oc2ccc(S(=O)(=O)C(F)F)c3c2CCC3O)c1 (stereo not shown) [Compound 78]			pEC50 [3]: 6.00 to 6.60
